Laboratory results as given in PubChem BioAssay (NCI).
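The compound was tested at five concentrations on cells cultured in 96-well plates, with a 48-hour exposure period. GI50 = concentration required for 50% inhibition of growth. TGI denotes the concentration required for complete inhibition of growth.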

Legend:
Experiment in all cases: NCI-60 cell line screen, 48 h
786-0 renal = tested on: 786-0 renal
A498 renal = tested on: A498 renal
A549 NSCLC = tested on: A549 NSCLC
ACHN renal = tested on: ACHN renal
BT-549 breast = tested on: BT-549 breast
CAKI-1 renal = tested on: CAKI-1 renal
CCRF-CEM leukemia = tested on: CCRF-CEM leukemia
COLO 205 colon = tested on: COLO 205 colon
DU-145 prostate = tested on: DU-145 prostate
EKVX NSCLC = tested on: EKVX NSCLC
HCC-2998 colon = tested on: HCC-2998 colon
HCT-116 colon = tested on: HCT-116 colon
HCT-15 colon = tested on: HCT-15 colon
HL-60(TB) leukemia = tested on: HL-60(TB) leukemia
HOP-62 NSCLC = tested on: HOP-62 NSCLC
HOP-92 NSCLC = tested on: HOP-92 NSCLC
HS 578T breast = tested on: HS 578T breast
HT29 colon = tested on: HT29 colon
IGROV1 ovarian = tested on: IGROV1 ovarian
K-562 leukemia = tested on: K-562 leukemia
KM12 colon = tested on: KM12 colon
LOX IMVI melanoma = tested on: LOX IMVI melanoma
M14 melanoma = tested on: M14 melanoma
MALME-3M melanoma = tested on: MALME-3M melanoma
MCF7 breast = tested on: MCF7 breast
MDA-MB-231 breast = tested on: MDA-MB-231 breast
MDA-MB-435 = tested on: MDA-MB-435
MOLT-4 leukemia = tested on: MOLT-4 leukemia
NCI-H23 lung = tested on: NCI-H23 lung
NCI-H460 lung = tested on: NCI-H460 lung
NCI-H522 lung = tested on: NCI-H522 lung
NCI/ADR-RES ovarian = tested on: NCI/ADR-RES ovarian
OVCAR-3 ovarian = tested on: OVCAR-3 ovarian
OVCAR-4 ovarian = tested on: OVCAR-4 ovarian
OVCAR-5 ovarian = tested on: OVCAR-5 ovarian
OVCAR-8 ovarian = tested on: OVCAR-8 ovarian
PC-3 prostate = tested on: PC-3 prostate
RPMI-8226 leukemia = tested on: RPMI-8226 leukemia
RXF 393 renal = tested on: RXF 393 renal
SF-268 CNS = tested on: SF-268 CNS
SF-295 CNS = tested on: SF-295 CNS
SF-539 CNS = tested on: SF-539 CNS
SK-MEL-2 melanoma = tested on: SK-MEL-2 melanoma
SK-MEL-28 melanoma = tested on: SK-MEL-28 melanoma
SK-MEL-5 melanoma = tested on: SK-MEL-5 melanoma
SK-OV-3 ovarian = tested on: SK-OV-3 ovarian
SN12C renal = tested on: SN12C renal
SNB-19 CNS = tested on: SNB-19 CNS
SNB-75 CNS = tested on: SNB-75 CNS
SR leukemia = tested on: SR leukemia
SW-620 colon = tested on: SW-620 colon
T-47D breast = tested on: T-47D breast
TK-10 renal = tested on: TK-10 renal
U251 CNS = tested on: U251 CNS
UACC-257 melanoma = tested on: UACC-257 melanoma
UACC-62 melanoma = tested on: UACC-62 melanoma
UO-31 renal = tested on: UO-31 renal

COc1cc2c(cc1OCCCOc1cc3c(cc1OC)C(=O)N1CC(F)(F)C[C@H]1C=N3)N=C[C@@H]1CC(F)(F)CN1C2=O
TGI (786-0 renal): 0.877 µM
GI50 (A498 renal): 1.03 µM
TGI (A498 renal): 2.65 µM
GI50 (A549 NSCLC): 3.79 µM
TGI (A549 NSCLC): > 100 µM
GI50 (ACHN renal): 0.973 µM
TGI (ACHN renal): 13.9 µM
GI50 (BT-549 breast): 0.727 µM
TGI (BT-549 breast): 3.12 µM
GI50 (CAKI-1 renal): 0.185 µM
TGI (CAKI-1 renal): 0.708 µM
TGI (CCRF-CEM leukemia): 1.06 µM
GI50 (COLO 205 colon): 0.814 µM
TGI (COLO 205 colon): 2.49 µM
GI50 (DU-145 prostate): 0.329 µM
TGI (DU-145 prostate): 2.82 µM
GI50 (EKVX NSCLC): 1.66 µM
TGI (EKVX NSCLC): 7.06 µM
GI50 (HCC-2998 colon): 1.37 µM
TGI (HCC-2998 colon): 3.45 µM
GI50 (HCT-116 colon): 0.415 µM
TGI (HCT-116 colon): 2.25 µM
GI50 (HCT-15 colon): 10.4 µM
TGI (HCT-15 colon): 50.6 µM
GI50 (HL-60(TB) leukemia): 0.0984 µM
TGI (HL-60(TB) leukemia): 2 µM
GI50 (HOP-62 NSCLC): 0.206 µM
TGI (HOP-62 NSCLC): 2.59 µM
GI50 (HOP-92 NSCLC): 0.336 µM
TGI (HOP-92 NSCLC): 7.73 µM
GI50 (HS 578T breast): 3.13 µM
TGI (HS 578T breast): 15.3 µM
GI50 (HT29 colon): 0.641 µM
TGI (HT29 colon): 13 µM
GI50 (IGROV1 ovarian): 0.116 µM
TGI (IGROV1 ovarian): 2.33 µM
GI50 (K-562 leukemia): 0.601 µM
TGI (K-562 leukemia): 4.81 µM
GI50 (KM12 colon): 2.37 µM
TGI (KM12 colon): 13.6 µM
GI50 (LOX IMVI melanoma): 0.256 µM
TGI (LOX IMVI melanoma): 2.65 µM
GI50 (M14 melanoma): 0.698 µM
TGI (M14 melanoma): 3.7 µM
GI50 (MALME-3M melanoma): 1.27 µM
TGI (MALME-3M melanoma): 3.19 µM
GI50 (MCF7 breast): 0.195 µM
TGI (MCF7 breast): 11.4 µM
GI50 (MDA-MB-231 breast): 1.31 µM
TGI (MDA-MB-231 breast): 6.77 µM
GI50 (MDA-MB-435): 1.6 µM
TGI (MDA-MB-435): 4.91 µM
GI50 (MOLT-4 leukemia): 0.0383 µM
TGI (MOLT-4 leukemia): 1.72 µM
GI50 (NCI-H23 lung): 0.492 µM
TGI (NCI-H23 lung): 9.86 µM
GI50 (NCI-H460 lung): 0.0551 µM
TGI (NCI-H460 lung): 2.45 µM
GI50 (NCI-H522 lung): 0.228 µM
TGI (NCI-H522 lung): 1.03 µM
GI50 (NCI/ADR-RES ovarian): 21.4 µM
TGI (NCI/ADR-RES ovarian): > 84 µM
GI50 (OVCAR-3 ovarian): 0.42 µM
TGI (OVCAR-3 ovarian): 6.99 µM
GI50 (OVCAR-4 ovarian): 3.45 µM
TGI (OVCAR-4 ovarian): 17.4 µM
GI50 (OVCAR-5 ovarian): 1.74 µM
TGI (OVCAR-5 ovarian): 8.99 µM
GI50 (OVCAR-8 ovarian): 0.899 µM
TGI (OVCAR-8 ovarian): 9.16 µM
GI50 (PC-3 prostate): 1.28 µM
TGI (PC-3 prostate): 9.9 µM
GI50 (RPMI-8226 leukemia): 1.64 µM
TGI (RPMI-8226 leukemia): 5.79 µM
GI50 (RXF 393 renal): 1.38 µM
TGI (RXF 393 renal): 2.87 µM
GI50 (SF-268 CNS): 0.216 µM
TGI (SF-268 CNS): 17.8 µM
GI50 (SF-295 CNS): 0.0635 µM
TGI (SF-295 CNS): 0.539 µM
GI50 (SF-539 CNS): 0.165 µM
TGI (SF-539 CNS): 2.72 µM
GI50 (SK-MEL-2 melanoma): 2.32 µM
TGI (SK-MEL-2 melanoma): 12.8 µM
GI50 (SK-MEL-28 melanoma): 1.95 µM
TGI (SK-MEL-28 melanoma): 5.47 µM
GI50 (SK-MEL-5 melanoma): 1.15 µM
TGI (SK-MEL-5 melanoma): 2.39 µM
GI50 (SK-OV-3 ovarian): 1.02 µM
TGI (SK-OV-3 ovarian): > 30.3 µM
GI50 (SN12C renal): 0.269 µM
TGI (SN12C renal): > 37.2 µM
GI50 (SNB-19 CNS): 0.446 µM
TGI (SNB-19 CNS): 18.3 µM
GI50 (SNB-75 CNS): 1.58 µM
TGI (SNB-75 CNS): 18.4 µM
GI50 (SR leukemia): < 0.0261 µM
TGI (SR leukemia): 0.508 µM
GI50 (SW-620 colon): 0.469 µM
TGI (SW-620 colon): 4.03 µM
GI50 (T-47D breast): 0.344 µM
TGI (T-47D breast): 5.12 µM
GI50 (TK-10 renal): 3.56 µM
TGI (TK-10 renal): 12.5 µM
GI50 (U251 CNS): 0.166 µM
TGI (U251 CNS): 11.4 µM
GI50 (UACC-257 melanoma): 2 µM
TGI (UACC-257 melanoma): 5.46 µM
GI50 (UACC-62 melanoma): 0.365 µM
TGI (UACC-62 melanoma): 1.82 µM
GI50 (UO-31 renal): 1.24 µM
TGI (UO-31 renal): > 33.1 µM
